Source: patent US4585861A, “1,2,4-triazine derivatives” (Eli Lilly and Company, priority 1985, dated 1986)
Structures can show the parent of a compound that is named as a salt.

Experiments:
[1] = Mouse Writhing Inhibition Assay; type: in vivo, Cox standard strain albino male mice
Method: Writhing, which is characterized by contraction of the abdominal musculature, extension of the hindlegs, and rotation of the trunk, was induced in Cox standard strain albino male mice. The mice, weighing 18-24 grams, were fasted overnight and given the test compound by gavage in an acacia suspension (5%) 60 minutes before writhing was induced by the intraperitoneal administration of 55 mg./kg. of acetic acid (0.55 percent). Each treatment group consisted of 3 mice. The total number of writhes for the treatment group was determined during a 5-minute observation starting 5 minutes after acetic acid administration.

[2] = Appetite Suppression Assay; type: in vivo, Cox standard strain albino male mice; conditions: Mus musculus
Method: In this test, groups of three Cox standard strain albino male mice were weighed (18-24 grams) and then fasted overnight (16-18 hours). The mice were reweighed and then given the test compound in a suspension of acacia (5%) by gavage. Thirty minutes after oral administration, the mice were allowed to eat freely for one hour. After the eating period, the mice were weighed once more. The percent of weight gained (from the time the mice were given the test compound to after the feeding period) compared to weight lost during the fast period was calculated. The non-drug treated control animals gained back 35-55% of the weight lost on fasting. Any compound at the dose level tested which produced a weight gain of less than 10% was considered to be active. The results in Table 2 report the lowest dose level in which there was activity for each compound tested. Dextroamphetamine sulfate is active in this system at about 2.5 mg./kg.

[3] = Electroshock Induced Convulsion Inhibition Assay; type: in vivo, Cox standard strain albino male mice; conditions: Mus musculus
Method: (§1) In this assay, a compound to be tested was suspended in acacia (5%) and administered by gavage to each of three Cox standard strain albino male mice (18-24 grams) at the dose level being investigated. One hour after the oral administration, a water solution of metrazole (pentylenetetrazole) was administered by the intraperitoneal route to each mouse at a dose of 110 mg./kg. […] A score of 0 was assigned to a mouse not showing any signs of convulsant activity; a score of 1 was given to mice developing clonic convulsions; a score of 2 was given to mice showing flexor tonic convulsions; a score of 3 was given to mice showing extensor tonic convulsions; and a score of 4 was given to mice that died within the one hour. The scores of the three mice were totalled for each compound and dose level. The scores can range from 0 to 12; a score of 6 or less was interpreted as indicative of an active compound at that dose level. Values reported in Table 2 below are the minimum oral dose levels (mg./kg.) where activity as defined above was observed.
The drug administration and test conditions used in this assay were similar to those used in the metrazole induced convulsion inhibition assay above except that a 0.1 second, 50 milliampere electroshock through corneal electrodes induced the convulsion instead of metrazole. The animals were examined and evaluated immediately after the electroshock and were scored as before. The results in Table 2 are expressed as the lowest dose of each compound tested which was active as previously defined. For comparison, 18 milliamperes was usually sufficient to produce extensor tonic convulsions in about half of the control animals; at 50 milliamperes, almost all control animals died. Diazepam was active at about 1 mg./kg.

[4] = Metrazole Induced Convulsion Inhibition Assay; type: in vivo, Cox standard strain albino male mice; conditions: Mus musculus
Method: as §1

GABA receptor = assay: In vitro activation of GABA binding ([3H]GABA, Triton X-100 treated membrane protein); conditions: average of one or more tests, read-out: SC50 GABA (nanomolar concentration producing a 50% increase in binding)
Method: (§2) The novel compounds of this invention were examined for their in vitro ability to activate GABA and benzodiazepine (BZ) binding. To measure the effect of a compound on GABA binding, Triton X-100 (octylphenoxy polyethoxyethanol, Rohm and Haas Co.) treated membrane protein was incubated in the presence of the compound and [^3 H]GABA as detailed by Horng and Wong, J. Neurochemistry, 32 (5), 1379 (1979). To examine BZ binding, H-flunirazepam and the compounds were incubated with native membrane protein as reported by Wong, et al, Brain Res. Bull., 5 (Suppl. 2), 853 (1980). The results in Table 1 are the nanomolar concentrations of compounds (by Example No.) which produced a 50 percent increase (SC50) in GABA or BZ binding. Each result is the average of one or more tests.

benzodiazepine receptor = assay: In vitro activation of benzodiazepine (BZ) binding (flunirazepam, native membrane protein); conditions: average of one or more tests, read-out: SC50 BZ (nanomolar concentration producing a 50% increase in binding)
Method: as §2

[5] = oral gavage 30 min before feeding, active = weight gain of less than 10% of weight lost on fasting, read-out: Minimum active oral dose, Appetite Suppression
[6] = oral, 0.1 second, 50 milliampere corneal electroshock, active = total score of 6 or less, read-out: Minimum active oral dose, Electro-Shock
[7] = oral gavage, 1 h before metrazole 110 mg./kg. i.p., active = total score of 6 or less (3 mice, range 0-12), read-out: Minimum active oral dose, Metrazole
[8] = oral gavage 60 min before acetic acid 55 mg./kg. i.p., active = less than ten writhes, read-out: Minimum active oral dose, Mouse Writhing

Compound `CC(=O)Oc1ccccc1C(=O)O` [Aspirin, acetyl salicylic acid, reference compound] has a minimal effective dose ([1]; po, read-out: dose showing activity, mouse writhing (reference)) of 200 mg/kg.

Compound `C[C@H](N)Cc1ccccc1` [Dextroamphetamine sulfate, reference compound] has a minimal effective dose ([2]; po, read-out: dose showing activity, appetite suppression (reference)) of roughly 2.5 mg/kg.

Compound `CN1C(=O)CN=C(c2ccccc2)c2cc(Cl)ccc21` [Diazepam, reference compound] has a minimal effective dose ([3]; po, read-out: dose showing activity, electroshock test (reference)) of roughly 1 mg/kg and a minimal effective dose ([4]; po, read-out: dose showing activity, metrazole test (reference)) of roughly 1 mg/kg.

`Cc1ccc(-c2nnc(N3CCC(O)CC3)nc2-c2ccc(C)cc2)cc1` [Example 7, 1-[5,6-bis(4-methylphenyl)-1,2,4-triazin-3-yl]-4-piperidinol] showed a minimal effective dose [2, 5] of 3.1 mg/kg, a minimal effective dose [3, 6] of less than 25 mg/kg and a minimal effective dose [4, 7] of 3.1 mg/kg. For the same compound, the EC50 (GABA receptor) was 900 nM, the minimal effective dose [1, 8] was 3.1 mg/kg and the EC50 (benzodiazepine receptor) was 700 nM.

`CCc1ccc(-c2nnc(N3CCC(O)CC3)nc2-c2ccc(CC)cc2)cc1` [Example 8, 1-[5,6-bis(4-ethylphenyl)-1,2,4-triazin-3-yl]-4-piperidinol] showed an EC50 (GABA receptor) greater than 10000 nM and an EC50 (benzodiazepine receptor) of 3500 nM.

`Cc1ccccc1-c1nnc(N2CCC(O)CC2)nc1-c1ccccc1C` [Example 9, 1-[5,6-bis(2-methylphenyl)-1,2,4-triazin-3-yl]-4-piperidinol] gave an EC50 (GABA receptor) greater than 10000 nM and an EC50 (benzodiazepine receptor) greater than 10000 nM.

Compound `Cc1cccc(-c2nnc(N3CCC(O)CC3)nc2-c2cccc(C)c2)c1` [Example 10, 1-[5,6-bis(3-methylphenyl)-1,2,4-triazin-3-yl]-4-piperidinol] has an EC50 (benzodiazepine receptor) greater than 10000 nM.

In the case of `OC1CCN(c2nnc(-c3ccc(Cl)cc3)c(-c3ccc(Cl)cc3)n2)CC1` [Example 11, 1-[5,6-bis(4-chlorophenyl)-1,2,4-triazin-3-yl]-4-piperidinol], the minimal effective dose [2, 5] is reported as 25 mg/kg, the minimal effective dose [3, 6] is reported as greater than 25 mg/kg and the minimal effective dose [4, 7] is reported as 12.5 mg/kg. It also gave a minimal effective dose [1, 8] greater than 25 mg/kg.

For `CC(=O)OC1CCN(c2nnc(-c3ccc(C)cc3)c(-c3ccc(C)cc3)n2)CC1` [Example 12, 1-[5,6-bis(4-methylphenyl)-1,2,4-triazin-3-yl]-4-piperidinol, acetate (ester)], the minimal effective dose [2, 5] was 12.5 mg/kg, the minimal effective dose [3, 6] was 25 mg/kg and the minimal effective dose [4, 7] was 6.25 mg/kg. The EC50 (GABA receptor) was 3.3 nM, the minimal effective dose [1, 8] was 12.5 mg/kg and the EC50 (benzodiazepine receptor) was 5.5 nM.

In the case of `CC(=O)OC1CCN(c2nnc(-c3ccc(Cl)cc3)c(-c3ccc(Cl)cc3)n2)CC1` [Example 13, 1-[5,6-bis[4-chlorophenyl]-1,2,4-triazin-3-yl]-4-piperidinol, acetate (ester)], the minimal effective dose [2, 5] is reported as greater than 50 mg/kg, the minimal effective dose [3, 6] is reported as greater than 50 mg/kg and the minimal effective dose [4, 7] is reported as 50 mg/kg. It also gave an EC50 (GABA receptor) of 15 nM, a minimal effective dose [1, 8] greater than 50 mg/kg and an EC50 (benzodiazepine receptor) of 12 nM.

With `CC(=O)OC1CCN(c2nnc(-c3ccccc3C)c(-c3ccccc3C)n2)CC1` [Example 14, 1-[5,6-bis(2-methylphenyl)-1,2,4-triazin-3-yl]-4-piperidinol, acetate (ester)] the minimal effective dose [2, 5] was 200 mg/kg, the minimal effective dose [3, 6] was greater than 200 mg/kg and the minimal effective dose [4, 7] was 200 mg/kg. The EC50 (GABA receptor) was 60 nM, the minimal effective dose [1, 8] was greater than 200 mg/kg and the EC50 (benzodiazepine receptor) was 1000 nM.

In the case of `CCC(=O)OC1CCN(c2nnc(-c3ccc(C)cc3)c(-c3ccc(C)cc3)n2)CC1` [Example 15, 1-[5,6-bis(4-methylphenyl)-1,2,4-triazin-3-yl]-4-piperidinol, propanoate (ester)], the minimal effective dose [2, 5] is reported as 12.5 mg/kg, the minimal effective dose [3, 6] is reported as 12.5 mg/kg and the minimal effective dose [4, 7] is reported as 12.5 mg/kg. For the same compound, the EC50 (GABA receptor) was 10 nM, the minimal effective dose [1, 8] was 12.5 mg/kg and the EC50 (benzodiazepine receptor) was 19 nM.

For `Cc1ccc(-c2nnc(N3CCC(OC(=O)C(C)(C)C)CC3)nc2-c2ccc(C)cc2)cc1` [Example 16, 1-[5,6-bis(4-methylphenyl)-1,2,4-triazin-3-yl]-4-piperidinol, pivaloate (ester)], the EC50 (GABA receptor) was 110 nM and the EC50 (benzodiazepine receptor) was 14 nM.

Work on `Cc1ccc(-c2nnc(N3CCC(OC(=O)c4ccccc4)CC3)nc2-c2ccc(C)cc2)cc1` [Example 17, 1-[5,6-bis(4-methylphenyl)-1,2,4-triazin-3-yl]-4-piperidinol, benzoate (ester)] yielded a minimal effective dose [2, 5] greater than 200 mg/kg, a minimal effective dose [3, 6] greater than 200 mg/kg and a minimal effective dose [4, 7] greater than 200 mg/kg. For the same compound, the EC50 (GABA receptor) was 500 nM, the minimal effective dose [1, 8] was greater than 200 mg/kg and the EC50 (benzodiazepine receptor) was 1000 nM.

Compound `Cc1ccc(-c2nnc(N3CCC(O)C3)nc2-c2ccc(C)cc2)cc1` (centres unmarked) [Example 18, 1-[5,6-bis(4-methylphenyl)-1,2,4-triazin-3-yl]-3-pyrrolidinol] has a minimal effective dose [2, 5] of 12.5 mg/kg, a minimal effective dose [3, 6] of 200 mg/kg and a minimal effective dose [4, 7] greater than 200 mg/kg. The minimal effective dose [1, 8] was 200 mg/kg.

For `CC(=O)OC1CCN(c2nnc(-c3ccc(C)cc3)c(-c3ccc(C)cc3)n2)C1` (centres unmarked) [Example 19, 1-[5,6-bis(4-methylphenyl)-1,2,4-triazin-3-yl]-3-pyrrolidinol, acetate (ester)], the EC50 (GABA receptor) was 43 nM and the EC50 (benzodiazepine receptor) was 60 nM.

`Cc1ccc(-c2nnc(N3CCOCC3)nc2-c2ccc(C)cc2)cc1` [Example 22, 3-morpholino-5,6-bis(4-methylphenyl)-1,2,4-triazine] gave an EC50 (GABA receptor) of 875 nM and an EC50 (benzodiazepine receptor) of 1140 nM.

With `Cc1ccc(-c2nnc(N3CCC(C)CC3)nc2-c2ccc(C)cc2)cc1` [Example 25, 5,6-bis(4-methylphenyl)-3-(4-methyl-1-piperidinyl)-1,2,4-triazine] the minimal effective dose [2, 5] was 50 mg/kg, the minimal effective dose [3, 6] was greater than 200 mg/kg and the minimal effective dose [4, 7] was greater than 200 mg/kg. For the same compound, the minimal effective dose [1, 8] was greater than 200 mg/kg.

In the case of `CCOC1CCN(c2nnc(-c3ccc(C)cc3)c(-c3ccc(C)cc3)n2)CC1` [Example 27, 3-(4-ethoxy-1-piperidinyl)-5,6-bis(4-methylphenyl)-1,2,4-triazine], the EC50 (GABA receptor) is reported as 10 nM and the EC50 (benzodiazepine receptor) is reported as 21 nM.

For `CNC(=O)OC1CCN(c2nnc(-c3ccc(C)cc3)c(-c3ccc(C)cc3)n2)CC1` [Example 30, 1-[5,6-bis(4-methylphenyl)-1,2,4-triazin-3-yl]-4-piperidinol, N-methyl carbamate (ester)], the EC50 (GABA receptor) was 100 nM and the EC50 (benzodiazepine receptor) was 24 nM.

Work on `Cc1ccc(-c2nnc(N3CCC(OC(=O)N(C)C)CC3)nc2-c2ccc(C)cc2)cc1` [Example 31] yielded an EC50 (GABA receptor) of 1 nM and an EC50 (benzodiazepine receptor) of 3 nM.

For `Cc1ccc(-c2nnc(N3CCC(OC=O)CC3)nc2-c2ccc(C)cc2)cc1` [Example 34, 1-[5,6-bis(4-methylphenyl)-1,2,4-triazin-3-yl]-4-piperidinol, formate (ester)], the EC50 (GABA receptor) was 13 nM and the EC50 (benzodiazepine receptor) was 10 nM.

For `Cc1ccc(-c2nnc(N3CCC(C(N)=O)CC3)nc2-c2ccc(C)cc2)cc1` [Example 36, 1-[5,6-bis(4-methylphenyl)-1,2,4-triazin-3-yl]-4-piperidinecarboxamide], the EC50 (GABA receptor) was 800 nM and the EC50 (benzodiazepine receptor) was 8500 nM.

`Cc1ccc(-c2nnc(N3CCC(CO)CC3)nc2-c2ccc(C)cc2)cc1` [Example 37, 1-[5,6-bis(4-methylphenyl)-1,2,4-triazin-3-yl]-4-piperidinemethanol] showed an EC50 (GABA receptor) of 160 nM and an EC50 (benzodiazepine receptor) of 520 nM.

With `Cc1ccc(-c2nnc(N3CCC(=NO)CC3)nc2-c2ccc(C)cc2)cc1` [Example 40, 1-[5,6-bis(4-methylphenyl)-1,2,4-triazin-3-yl]-4-piperidinone, oxime] the EC50 (GABA receptor) was 1300 nM and the EC50 (benzodiazepine receptor) was 1600 nM.
